# Measured values published in article PMC10328330 (PLOS ONE, 2023).
# Like-named read-outs stand apart in the source and are kept apart here. Numbered stars: 1 amine (or outer) side, 2 acyl side, 3 side chain; on linkers, the order of the positions; unused ones are H or OH. Bridge positions count the residues as written; N and C are the ends. Square brackets hold non-standard residues; d marks the D form. Peptide text beside a SMILES is read from it. * marks the point of attachment. pTerphenylCO(4''-OnC5H11) = CCCCCOc1ccc(-c2ccc(-c3ccc(C(=O)*)cc3)cc2)cc1; Orn(4R-OH,5R-OH) = O=C([C@H](C[C@@H](O)[C@@H](O)N[*:3])N[*:1])[*:2]; hTyr(3S-OH,4S-OH) = N[C@H](C(=O)O)[C@H](O)[C@@H](O)c1ccc(O)cc1; Pro(3S-OH,4S-Me) = C[C@H]1CN[C@H](C(=O)O)[C@H]1O; Hyp = O=C(O)[C@@H]1C[C@@H](O)CN1
# Assays:
# [1] = tested on: T. gondii tachyzoites (RH strain, clone 2F1); assay: microbe, parasite or virus in culture; type: cell-based, Toxoplasma gondii; settings: for EC50: 72 h, read-out: EC50 ± SD against T. gondii tachyzoites
# [2] = Cytotoxicity in mammalian cells (MTT assay); settings: human, HFF cells
# T. gondii = tested on: T. gondii; parameters: method as in PMID 23019377; settings: T. gondii-infected mice, after 16 days of treatment, cited from earlier work
# in vitro = settings: human
# HFF cells = assay: Cytotoxicity in mammalian cells (MTT assay); settings: read-out: CC50 ± SD against HFF cells; HFF, 72 h, MTT; highest tested concentration 50 μM; ± SD of two independent experiments
# [3] = Toxoplasma gondii, RH-2F1 tachyzoites in HFF, β-galactosidase readout, ± SD of two independent experiments
# [4] = CC50 HFF cells/EC50 T. gondii ratio
# [5] = RH-2F1 tachyzoites in HFF, β-galactosidase readout, ± SD of two independent experiments
SMILES,"EC50 [1, 3] [nM]",CC50 at 72 h [2] [nM],"Selectivity Index (SI) [1, 4]",further results
"OC(CNCC(O)C1CCc2cc(F)ccc2O1)C1CCc2cc(F)ccc2O1 (stereo not drawn) [Compound 28, Nebivolol]",780 ± 280,37100 ± 2880,–,Selectivity Index (SI) [1]: 48
"O=C1NCN(c2ccccc2)C12CCN(CCCC(c1ccc(F)cc1)c1ccc(F)cc1)CC2 [Compound 14, Fluspirilene]",760 ± 70,> 50000,–,–
COc1cc2[nH]c(C)c(-c3ccc(Oc4ccc(OC(F)(F)F)cc4)cc3)c(=O)c2cc1F [ELQ-316],–,–,–,reduction of the number of brain cysts (T. gondii; 25 mg/kg): 88%
"CCCCCOc1ccc(-c2ccc(-c3ccc(C(=O)N[C@H]4C[C@@H](O)[C@@H](O)NC(=O)[C@@H]5[C@@H](O)[C@@H](C)CN5C(=O)[C@H]([C@@H](C)O)NC(=O)[C@H]([C@H](O)[C@@H](O)c5ccc(O)cc5)NC(=O)[C@@H]5C[C@@H](O)CN5C(=O)[C@H]([C@@H](C)O)NC4=O)cc3)cc2)cc1 [Compound 19, Anidulafungin] ({pTerphenylCO(4''-OnC5H11)}-[Orn(4R-OH,5R-OH)]T[Hyp][hTyr(3S-OH,4S-OH)]T[Pro(3S-OH,4S-Me)]; lactam 1-C)",830 ± 210,–,47,CC50 (in vitro): 38900 ± 15700 nM
"CCOc1ccc(Cc2nccc3cc(OCC)c(OCC)cc23)cc1OCC [Compound 3, Ethaverine]",920 ± 90,–,–,Selectivity Index (SI) [1]: >54; CC50 at 72 h (in vitro): > 50000 nM
"Nc1nc(Nc2ccc3c(c2)CC[C@@H](N2CCCC2)CC3)nn1-c1cc2c(nn1)-c1ccccc1CCC2 [Compound 2, Bemcentinib]",380 ± 190,–,83,CC50 at 72 h (in vitro): 31600 ± 5520 nM
"COc1cc(NC(=O)Nc2cccc(CNC(=O)O[C@H]3CCOC3)c2)ccc1-c1cnco1 [Compound 24, Merimepodib]",780 ± 270,–,–,CC50 (in vitro): 26400 ± 10000 nM
"COc1ccc2cc1Oc1ccc(cc1)C[C@H]1c3cc(c(OC)cc3CCN1C)Oc1c(O)c(OC)cc3c1[C@H](C2)N(C)CC3 [Compound 20, Hanfangchin B]",–,–,54,"EC50 [1, 5]: 840 ± 190 nM; CC50 (HFF cells): 45000 ± 5850 nM"
"O=C(O)c1ccc2c(c1)nc(Nc1cccc(Cl)c1)c1ccncc12 [Compound 22, Silmitasertib]",870 ± 150,38400 ± 16400,–,–
"COc1cc2c3cc1Oc1c(OC)c(OC)cc4c1[C@@H](Cc1ccc(O)c(c1)Oc1ccc(cc1)C[C@@H]3N(C)CC2)N(C)CC4 [Compound 18, Berbamine]",740 ± 340,–,61,CC50 (in vitro): 45300 ± 5400 nM
O=C1C(O)=C([C@H]2CC[C@H](c3ccc(Cl)cc3)CC2)C(=O)c2ccccc21 [Atovaquone],–,–,–,reduction of the number of brain cysts (T. gondii; 5 mg/kg): 44%
"COc1cccc2c1CCCC2CCCN1CCN(C2CCCCC2)CC1 (stereo not drawn) [Compound 23, PB 28]",–,–,>102,"EC50 [1, 5]: 490 ± 210 nM; CC50 (HFF cells): > 50000 nM"
"O=C(Nc1ccc([N+](=O)[O-])cc1Cl)c1cc(Cl)ccc1O [Compound 1, Niclosamide]",430 ± 150,35500 ± 9570,–,Selectivity Index (SI) [1]: 83
"C[C@@H](C1CCCCC1)n1c(-c2cc3c(cc2Br)OCO3)nc2cc(C(=O)Nc3ccc(C#N)cc3)ccc21 [Compound 26, AZ3451]",–,–,>55,"EC50 [1, 5]: 910 ± 90 nM; CC50 (HFF cells): > 50000 nM"
"C[C@@H]1C[C@@H]([C@H](O)CC2CC(=O)NC(=O)C2)C(=O)[C@@H](C)C1 [Compound 25, Cycloheximide]",40 ± 20,–,–,CC50 (in vitro): 2480 ± 80 nM
"Nc1nc2nc[nH]c2c(=S)[nH]1 [Compound 6, Tioguanine]",–,> 50000,–,Selectivity Index (SI) [1]: >109; EC50 ([1]; Toxoplasma gondii): 460 ± 190 nM

SMILES,"EC50 [1, 3] [nM]",CC50 at 72 h [2] [nM],"Selectivity Index (SI) [1, 4]",further results
"CNCc1[cH-]ccc1CNc1ccnc2cc(Cl)ccc12.[Fe+2].c1cc[cH-]c1 [Compound 27, Desmethyl ferroquine]",–,–,71,"EC50 [1, 5]: 540 ± 20 nM; CC50 (HFF cells): 38200 ± 15600 nM"
"CCC(C)n1ncn(-c2ccc(N3CCN(c4ccc(OCC5COC(Cn6cncn6)(c6ccc(Cl)cc6Cl)O5)cc4)CC3)cc2)c1=O (stereo not drawn) [Compound 5, Itraconazole]",100 ± 10,> 50000,–,–
"CO[C@H]1C[C@@H]2CC[C@@H](C)[C@@](O)(O2)C(=O)C(=O)N2CCCC[C@H]2C(=O)O[C@H]([C@H](C)C[C@@H]2CC[C@@H](O)[C@H](OC)C2)CC(=O)[C@H](C)/C=C(\C)[C@@H](O)[C@@H](OC)C(=O)[C@H](C)C[C@H](C)/C=C/C=C/C=C/1C [Compound 17, Rapamycin]",770 ± 300,–,–,Selectivity Index (SI) [1]: >65; CC50 at 72 h (in vitro): > 50000 nM
"CCN1CCN(Cc2ccc(Nc3ncc(F)c(-c4cc(F)c5nc(C)n(C(C)C)c5c4)n3)nc2)CC1 [Compound 12, Abemaciclib]",50 ± 20,> 50000,–,–
"O=c1[nH]c2ccccc2n1C1CCN(CCCC(c2ccc(F)cc2)c2ccc(F)cc2)CC1 [Compound 29, Pimozide]",820 ± 220,> 50000,–,Selectivity Index (SI) [1]: >61
"CNC(=O)c1cc(Oc2ccc(NC(=O)Nc3ccc(Cl)c(C(F)(F)F)c3)cc2)ccn1 [Compound 9, Sorafenib]",650 ± 250,12400 ± 3170,–,–
"CN(C)CCOc1ccc(/C(=C(/CCCl)c2ccccc2)c2ccccc2)cc1 [Compound 16, Toremifene]",–,–,–,EC50 ([1]; Toxoplasma gondii): 850 ± 180 nM; CC50 at 72 h (in vitro): 44300 ± 6800 nM
"CNC(=O)c1cc(Oc2ccc(NC(=O)Nc3ccc(Cl)c(C(F)(F)F)c3)c(F)c2)ccn1 [Compound 4, Regorafenib]",400 ± 150,–,29,CC50 at 72 h (in vitro): 11600 ± 2190 nM
"CCSc1ccc2c(c1)N(CCCN1CCN(C)CC1)c1ccccc1S2 [Compound 21, Thiethylperazine]",900 ± 110,–,–,Selectivity Index (SI) [1]: 37; CC50 at 72 h (in vitro): 33100 ± 6010 nM
"CC(C)(C)Cn1c(N)nc2ccc(-c3[nH]c(C(C)(C)C)nc3-c3ccc(F)cc3)nc21 [Compound 7, LY 2228820]",230 ± 10,–,116,CC50 (in vitro): 26600 ± 11600 nM
"C=CCNc1nc(NCC=C)nc(N2CCN(C(c3ccc(F)cc3)c3ccc(F)cc3)CC2)n1 [Compound 11, Almitrine]",320 ± 140,> 50000,–,–
"CN(C)[C@@H]1C(O)=C(C(N)=O)C(=O)[C@@]2(O)C(O)=C3C(=O)c4c(O)cccc4[C@@](C)(O)[C@H]3C[C@@H]12 [Compound 15, Tetracycline]",910 ± 90,–,–,CC50 (in vitro): > 50000 nM
"COc1ccc2cc1Oc1ccc(cc1)C[C@H]1c3cc(c(OC)cc3CCN1C)Oc1c(OC)c(OC)cc3c1[C@H](C2)N(C)CC3 [Compound 13, Tetrandrine]",490 ± 150,–,–,Selectivity Index (SI) [1]: 71; CC50 (in vitro): 34700 ± 17000 nM
"COC(=O)C1=C(C)NC(C)=C(C(=O)OCCN2CCN(C(c3ccccc3)c3ccccc3)CC2)C1c1cccc([N+](=O)[O-])c1 (stereo not drawn) [Compound 10, Manidipine]",700 ± 250,–,>71,CC50 at 72 h (in vitro): > 50000 nM
"CCc1nc(N)nc(N)c1-c1ccc(Cl)cc1 [Compound 30, Pyrimetamine]",370 ± 80,> 50000,–,–
